Measurements published in PubChem BioAssay AID1996.
Converted amounts (≈) assume the structure as drawn.

details: buffer; pH 7.4; 200.0 µM

| SMILES | solubility kinetic [µg/mL] |
| --- | --- |
| CC(C)N(Cc1ccccc1)C(=O)COC(=O)c1ccc(S(=O)(=O)N2CCOCC2)cc1 | 3.1 (≈ 6.73 µM) |
| CCCC(=O)Nc1ccc2c(c1)nc1n2CCN(CCOC)C1 | > 47.5 |
| O=C(COC(=O)Cc1ccc(F)cc1)NCCc1ccccc1 | > 47.3 |
| COc1ccc(C(OC(=O)c2ccco2)C(=O)NC2CCCC2)cc1 (stereo unspecified) | 3.4 (≈ 9.9 µM) |
| Cc1cc(NC(=O)c2ccc(COc3ccccc3Cl)o2)no1 | < 0.4 |
| O=C(NC1CCCC1)c1cc(-c2cccc(Cl)c2)on1 | 1.5 (≈ 5.16 µM) |
| CCCCOc1cccc(C(=O)Nc2ccccc2N2CCCC2)c1 | 1.2 (≈ 3.55 µM) |
| Cc1cc(NC(=O)COc2ccccc2C(N)=O)no1 | 19.7 (≈ 71.6 µM) |
| Cc1[nH]c2ccccc2c1C(=O)C(=O)N1CCC2(CC1)OCCO2 | > 49.3 |
| O=C(NNC(=O)c1ccco1)c1csc(N2CCOCC2)n1 | > 48.4 |
| CC1CCC(C(=O)NC(C(=O)Nc2ccccn2)C(C)C)CC1 (stereo unspecified) | 13.5 (≈ 42.5 µM) |
| CCCOc1ccc(S(=O)(=O)N2CCN(C)CC2)c2ccccc12 | 39.2 (≈ 112 µM) |
| CCC12CN3CCN(CC(C3)/C1=N\NC(=O)c1ccc(Cl)cc1)C2 | > 52 |
| COC(=O)c1cccnc1NC(=S)NC(C)C | 7.1 (≈ 28 µM) |
| Cl.OC(c1ccc(Cl)cc1)c1nccc2ccccc12 (stereo unspecified) | 31.1 |
| Nc1nonc1C(=O)NCCNc1ccc([N+](=O)[O-])cc1 | 3.8 (≈ 13 µM) |
| O=C(Nc1ccccc1C(=O)N1CCCCC1)NC1CCCCC1 | > 49.4 |
| Cc1ccc(S(=O)(=O)Nc2ccccc2N2CCOCC2)cc1 | 0.8 (≈ 2.41 µM) |
| O=C(CCCCl)N1CCc2[nH]c3ccccc3c2C1 | > 41.5 |
| CCCC(CCC)C(=O)OC1C[C@H]2CC[C@@H](C1)[N+]2(C)C.[Br-] (stereo partly specified) | > 54.4 |
| CCN(C(=O)c1ccc2c(c1)OCO2)C1CCS(=O)(=O)C1 (stereo unspecified) | > 46.7 |
| O=C(O)CN1C(=O)NC2(CCc3ccccc32)C1=O (stereo unspecified) | > 39 |

| SMILES | solubility kinetic [µg/mL] |
| --- | --- |
| Cc1cc(C)c(C)c(OCCN2CCOCC2)c1 | 27.3 (≈ 109 µM) |
| O=C(O)C1CCN(C(=O)c2csc(-c3ccc4c(c3)CCO4)n2)CC1 | > 53.8 |
| S=C(NCc1ccccc1)Nc1nccs1 | 3 (≈ 12 µM) |
| COc1ccc(NS(=O)(=O)c2cn(C)nc2C)cc1 | > 42.2 |
| CN(C)c1cc[n+](CC(=O)c2cccs2)cc1.[Cl-] | 41.7 |
| O=C(C1CCC1)N1CCN(c2ccccc2)CC1 | 35.6 (≈ 146 µM) |
| N#Cc1c(-c2ccc(Cl)cc2)cc(-c2cccs2)nc1SCC(=O)O | 13.2 (≈ 34.1 µM) |
| O=c1oc2ccc([N+](=O)[O-])cc2c(N2CCOCC2)c1[N+](=O)[O-] | > 48.2 |
| CCOC(=O)c1ccc(NC(=O)c2cc(F)c(F)cc2Cl)cc1 | < 0.7 |
| CC1CCN(S(=O)(=O)c2ccc3c(c2)oc(=O)n3C)CC1 | 3 (≈ 9.67 µM) |
| CCCOc1nc(C)cc(COC)c1C(N)=O | > 35.7 |
| Cc1ccccc1NC1=NC2(CCCC2)N=C(N)N1 | 28.3 (≈ 110 µM) |
| Cc1ccccc1C(=O)Nc1ccc(CN2CCOCC2)cc1 | 45.9 (≈ 148 µM) |
| CCC1CCCCN1C(=S)NC(=O)c1ccco1 (stereo unspecified) | > 40 |
| COCCC(=O)Nc1ccc2c(c1)CN(C(=O)CSC)CC2 | > 48.4 |
| Cc1nn(CC(=O)NCCCN2CCCC2=O)c(C)c1[N+](=O)[O-] | > 48.5 |
| Cc1ccc(OCCCn2c(=O)oc3ccccc32)cc1 | 2 (≈ 7.06 µM) |
| CSc1ncc(C(=O)Nc2ccccc2Cl)c(C)n1 | 39.6 (≈ 135 µM) |
| CC1CCN(C(=O)c2ccc(NC(=O)c3ccccc3)cc2)CC1 | > 48.4 |
| O=S(=O)(Nc1cccc(S(=O)(=O)N2CCCC2)c1)c1cccs1 | 51.9 (≈ 139 µM) |
| CC(=O)Nc1ccc(S(=O)(=O)N[C@@H](C)C(=O)NC2CCCc3ccccc32)cc1 (stereo partly specified) | 30.3 (≈ 72.9 µM) |
| O=C(O)c1ccc(S(=O)(=O)N2CCCC2)cc1 | 37.6 (≈ 147 µM) |

| SMILES | solubility kinetic [µg/mL] |
| --- | --- |
| COc1ccccc1N1CCN(C(=S)Nc2ccc(F)cc2)CC1 | 4 (≈ 11.6 µM) |
| Nc1nc2ccc(C(=O)Nc3ccc(N4CCOCC4)cc3)cc2s1 | 8.7 (≈ 24.5 µM) |
| N#CCn1c(Cc2ccccc2)nc2ccccc2c1=O | > 41.3 |
| Cc1ccc(CNC(=S)NCc2ccncc2)cc1 | 39.7 (≈ 146 µM) |
| CCC(C)[C@H](NC(=O)Nc1ccc2c(c1)OCCO2)C(=O)OC (stereo partly specified) | > 48.4 |
| COc1ccc(OCC(=O)OCC(=O)NC2CCCC2)cc1 | > 46.1 |
| CC(C)(C)C(=O)/C=c1\[nH]c(=O)/c(=C\c2ccccc2F)s1 | < 0.7 |
| COc1cc(OC)cc(C(=O)NCCCCc2ccccc2)c1 | 1.3 (≈ 4.15 µM) |
| O=C(COC(=O)c1cccnc1Cl)NC12CC3CC(CC(C3)C1)C2 | 50.1 (≈ 144 µM) |
| CC(=O)N1CCN(CC(=O)Nc2cc([N+](=O)[O-])ccc2Cl)CC1 | 43.4 (≈ 127 µM) |
| C/C(=N\NC(=O)C1CC1)c1ccc(C)c(C)c1 | > 34.5 |
| N#Cc1cc2ccccc2nc1SCC(=O)NC1CC1 | 3.2 (≈ 11.3 µM) |
| O=C(O)CCCC(=O)Nc1ccc(Oc2ncnc3cc(Cl)ccc23)nc1 | > 58 |
| COc1cccc(OC)c1OCCOCCN1CCN(C)CC1 | 48.6 (≈ 150 µM) |
| Clc1ccc(NCc2cccnc2)cc1 | 29.9 (≈ 137 µM) |
| O=C(COC(=O)C1CC1)Nc1ccc(Cl)cn1 | > 38.2 |
| COc1ccc(-c2cc(C(F)(F)F)c(C#N)c(SCC(=O)O)n2)cc1 | 53.6 (≈ 146 µM) |
| OCCC1CN(Cc2ccsc2)CCN1C1CCCC1 (stereo unspecified) | > 44.2 |
| O=c1ccc(-c2ccccc2)no1 | > 26 |
| CSc1ncccc1C(=O)Nc1cccc(S(=O)(=O)N2CCOCC2)c1 | > 59 |
| COc1cc(CC(=O)Nc2nc(C)cs2)cc(OC)c1OC | 42.9 (≈ 133 µM) |
| Cc1ccc(S(=O)(=O)NCc2csc(-c3cccs3)n2)cc1 | 0.7 (≈ 2 µM) |

| SMILES | solubility kinetic [µg/mL] |
| --- | --- |
| CCC(CC)C(=O)N1CCN(Cc2nc3ccccc3c(=O)[nH]2)CC1 | > 51.4 |
| O=C(c1cnc2nc3ccccc3n2c1)c1cc(F)ccc1O | 9.2 (≈ 29.9 µM) |
| COc1ccccc1N1CC(C(=O)NCC2COc3ccccc3O2)CC1=O (stereo unspecified) | > 57.4 |
| COCC(=O)Nc1nc(-c2ccc([N+](=O)[O-])cc2)cs1 | 7.3 (≈ 24.9 µM) |
| CC(C)(C)CC(=O)Nc1ccc(-c2cn3cccnc3n2)cc1 | 40.3 (≈ 131 µM) |
| Cc1ccccc1OCC(=O)Nc1ccc2oc(=O)ccc2c1 | 1.1 (≈ 3.56 µM) |
| CCS(=O)(=O)N1CCN=C1SCc1ccc(F)cc1 | 39.9 (≈ 132 µM) |
| Cc1cccc(Nc2nc(Cl)ncc2F)c1C | 5.3 (≈ 21.1 µM) |
| CCOC(=O)C1=C(c2ccccc2)OC(N)=C(C#N)C1c1cccnc1 (stereo unspecified) | 35.9 (≈ 103 µM) |
| COc1ccc(CN2C(=O)CCCc3ccccc32)cc1 | > 42.2 |
| Cc1ccc(NC(=O)CN2CCCCCC2)cc1[N+](=O)[O-] | 1.2 (≈ 4.12 µM) |
| CCSc1nsc(NC(=O)Nc2ccccc2F)n1 | 1.4 (≈ 4.69 µM) |
| O=C(NCc1ccc2c(c1)OCO2)C1CCCCC1 | > 39.2 |
| CCN(CC)c1ccc(NC(=O)CN(C)Cc2cccs2)cc1 | 39.1 (≈ 118 µM) |
| CC1CCN(c2ccc3nnc(CCC(=O)NC(C)C)n3n2)CC1 | > 49.6 |
| COc1ccccc1NC(=O)COC(=O)Cn1cnc2c1c(=O)n(C)c(=O)n2C | > 60.2 |
| O=C(/C=C/N1CCN(Cc2ccccc2)CC1)C(F)(F)F | > 44.7 |
| CCN(Cc1ccccc1)S(=O)(=O)c1ccc(OC)c2ncccc12 | > 53.5 |
| NC(=O)C1CCN(C(=O)Cc2ccsc2)CC1 | > 37.8 |
| CC(C)(C)c1cc(NC(=O)Nc2ccccc2OC(F)(F)F)no1 | < 0.2 |
